The record followed here is US5981558A, “DC107 derivatives” (Kyowa Hakko Kogyo Co., Ltd., priority 1996, dated 1999).

The assay relates to HeLa S3 cells. Briefly: HeLa S3 Cell Growth Inhibition Test. It is filed as cell-based. The settings on record: Homo sapiens, 72 hours incubation, Neutral Red. As for the experimental part: In each well of a 96-well microtiter plate was placed 0.1 mL of HeLa S3 cells having a concentration of 8×10^3 cells/mL and prepared in an MEM culture medium containing 10% fetal bovine serum and 2 mM glutamine. After the cells were incubated overnight at 37° C. in a carbon dioxide incubator, a test compound suitably diluted with a medium was added to the wells in an amount of 0.05 mL for each well. The cells were incubated at 37° C. for 72 hours in a carbon dioxide incubator. After the culture supernatant was removed, 0.1 mL of a culture medium containing 0.02% Neutral Red was added to each well. The cells were then incubated at 37° C. for 1 hour in a carbon dioxide incubator to dye the cells. After the culture supernatant was removed, each residue was rinsed once with physiological saline and the pigment was extracted with 0.001 N hydrochloric acid/30% ethanol. The absorbance at 550 nm of each extract was measured with a microplate reader. The drug concentration required for the 50% inhibition of cell growth, which is referred to as IC50, was calculated by comparing the absorbance for untreated cells with those for cells treated with the drug in known concentrations.

The mark [1] stands for this setting: HeLa S3, 72 h, read-out: IC50, HeLa S3 cell growth inhibition, HeLa S3.
Where [2] appears, read: HeLa S3, read-out: IC50, HeLa S3 cell growth inhibition.
[3] abbreviates: HeLa S3, 72 h, HeLa S3, read-out: IC50, HeLa S3 cell growth inhibition.

Structures are written as SMILES. Where two headings read alike, the source gives them in different places.

One may read the IC50 as the midpoint of a concentration-inhibition curve. `COC(=O)Nc1cccc(C(=O)OCSC(=O)C(C)(O)C23CC/C(C)=C/C(OC4(OC)CCOCC4)C(=O)/C=C/C=C\c4csc(n4)C(C)N(C(=O)C2)[S+]3[O-])c1` (stereo not drawn) [Compound 58]: the IC50 under setting [1] was determined as 0.038 µM.

`C/C1=C\C(O)C(=O)/C=C/C=C\c2csc(n2)C(C)N2C(=O)CC(C(C)(O)C(=O)SCOC(=O)CCNC(=O)[C@@]34O[C@@H](CO)[C@@H](O)[C@@H]3OC(C)(C)O4)(CC1)[S+]2[O-]` (stereo partly drawn) [Compound 59]: the IC50 under setting [1] is 1.3 µM.

With `COC(=O)[C@H](CCC(=O)OCSC(=O)C(C)(O)C12CC/C(C)=C/C(O)C(=O)/C=C/C=C\c3csc(n3)C(C)N(C(=O)C1)[S+]2[O-])NC(=O)C(C)(CO)CO` (stereo partly drawn) [Compound 61], the IC50 under setting [1] was 0.72 µM. Same read-out and setting: for `C/C1=C\C(O)C(=O)/C=C/C=C\c2csc(n2)C(C)N2C(=O)CC(C(C)(O)C(=O)SCOC(=O)c3ccc(O)cc3)(CC1)[S+]2[O-]` (stereo not drawn) [Compound 67] the value was 0.05 µM; for `C/C1=C\C(OC2CCCCO2)C(=O)/C=C/C=C\c2csc(n2)C(C)N2C(=O)CC(C(C)(O)C(=O)SCOC(=O)c3ccc(O)cc3)(CC1)[S+]2[O-]` (stereo not drawn) [Compound 68], 0.035 µM. On the same count and under the same terms, the same measure for `C/C1=C\C(OC2CCCCO2)C(=O)/C=C/C=C\c2csc(n2)C(C)N2C(=O)CC(C(C)(O)C(=O)SCOC(=O)c3cccc(O)c3)(CC1)[S+]2[O-]` (stereo not drawn) [Compound 69]: 0.076 µM; for `COC(=O)[C@H](CCC(=O)OCSC(=O)C(C)(O)C12CC/C(C)=C/C(OC3CCCCO3)C(=O)/C=C/C=C\c3csc(n3)C(C)N(C(=O)C1)[S+]2[O-])NC(=O)c1ccc(O)cc1` (stereo partly drawn) [Compound 71]: 0.0012 µM.

For `C/C1=C\C(OC2CCCCO2)C(=O)/C=C/C=C\c2csc(n2)C(C)N2C(=O)CC(C(C)(O)C(=O)SCOC(=O)c3ccc(OP(=O)(O)O)cc3)(CC1)[S+]2[O-]` (stereo not drawn) [Compound 72], the IC50 under setting [2] amounted to 0.65 µM. `C/C1=C\C(OC2CCCCO2)C(=O)/C=C/C=C\c2csc(n2)C(C)N2C(=O)CC(C(C)(O)C(=O)SCOC(=O)c3cccc(OP(=O)(O)O)c3)(CC1)[S+]2[O-]` (stereo not drawn) [Compound 73]: the IC50 under setting [2] turned out to be 1.9 µM. Regarding `C/C1=C\C(OC2CCCCO2)C(=O)/C=C/C=C\c2csc(n2)C(C)N2C(=O)CC(C(C)(O)C(=O)SCc3oc(=O)oc3CCl)(CC1)[S+]2[O-]` (stereo not drawn) [Compound 74], under setting [1], the IC50 turned out to be 0.019 µM. `CC[Si](CC)(CC)OCc1oc(=O)oc1CSC(=O)C(C)(O)C12CC/C(C)=C/C(O)C(=O)/C=C/C=C\c3csc(n3)C(C)N(C(=O)C1)[S+]2[O-]` (stereo not drawn) [Compound 75]: the IC50 under setting [2] amounted to 0.24 µM. On the same count and under the same terms, the same measure for `CC[Si](CC)(CC)OCc1oc(=O)oc1CSC(=O)C(C)(O)C12CC/C(C)=C/C(OC3CCCCO3)C(=O)/C=C/C=C\c3csc(n3)C(C)N(C(=O)C1)[S+]2[O-]` (stereo not drawn) [Compound 76]: 0.26 µM; for `CC[Si](CC)(CC)OC[C@H]1OC(OCc2oc(=O)oc2CSC(=O)C(C)(O)C23CC/C(C)=C/C(O)C(=O)/C=C/C=C\c4csc(n4)C(C)N(C(=O)C2)[S+]3[O-])C[C@@H](O[Si](CC)(CC)CC)[C@@H]1O[Si](CC)(CC)CC` (stereo partly drawn) [Compound 81]: 0.21 µM. On to `C/C1=C\C(OC2CCCCO2)C(=O)/C=C/C=C\c2csc(n2)C(C)N2C(=O)CC(C(C)(O)C(=O)SCc3oc(=O)oc3COC=O)(CC1)[S+]2[O-]` (stereo not drawn) [Compound 89], for which the IC50 under setting [1] stood at 0.041 µM. As for `CC(=O)OCc1oc(=O)oc1CSC(=O)C(C)(O)C12CC/C(C)=C/C(O)C(=O)/C=C/C=C\c3csc(n3)C(C)N(C(=O)C1)[S+]2[O-]` (stereo not drawn) [Compound 90], under setting [3], the IC50 turned out to be 0.13 µM. With `CC(=O)OCc1oc(=O)oc1CSC(=O)C(C)(O)C12CC/C(C)=C/C(OC3CCCCO3)C(=O)/C=C/C=C\c3csc(n3)C(C)N(C(=O)C1)[S+]2[O-]` (stereo not drawn) [Compound 91], the IC50 under setting [3] was 0.051 µM. As to `C/C1=C\C(OC2CCCCO2)C(=O)/C=C/C=C\c2csc(n2)C(C)N2C(=O)CC(C(C)(O)C(=O)SCc3oc(=O)oc3COC(=O)CN(C)C)(CC1)[S+]2[O-]` (stereo not drawn) [Compound 92], the IC50 under setting [1] was 0.0027 µM. Regarding `C/C1=C\C(OC2CCCCO2)C(=O)/C=C/C=C\c2csc(n2)C(C)N2C(=O)CC(C(C)(O)C(=O)SCc3oc(=O)oc3COC(=O)c3cccnc3)(CC1)[S+]2[O-]` (stereo not drawn) [Compound 93], the IC50 under setting [1] was found to be 0.0092 µM.
